This data set in a line: Stability of JAK3 covalent inhibitors in human whole blood.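 Further: parent compound remaining over incubation time quantified by LC-MS/MS as peak area ratio against an internal standard, using pooled K2-EDTA blood.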 The data set is classed as in vitro ADME. As to conditions: both sexes, whole blood, 37° C., read-out: Human blood stability t1/2.
Description: Stability of JAK3 Covalent Inhibitors in Rat and Human Whole Blood
Rat blood was collected from 3 male Sprague-Dawley rats (200-250 g, Charles River Laboratories) and pooled for each study. Human blood was collected from one male and one female healthy subjects at the Occupational Health & Wellness Center at Pfizer, Groton, CT and pooled for each study. Both rat and human blood was collected freshly into K2-EDTA tubes and kept on ice. An aliquot of the blood was transferred to microtubes and pre-warmed for 10 min at 37° C. using a heat block. […] An aliquot of the incubation mixture was removed at designated time points during the course of the incubation, mixed with an aliquot of acetonitrile containing an internal standard, vortexed and centrifuged. The resulting supernatants were removed and subjected to LC-MS/MS analyses to determine parent compound concentrations. Peak area ratios of the parent compound vs the internal standard were used to determine the % of parent compound remaining vs incubation time.
`C=CC(=O)N1CC[C@H](F)[C@@H](Nc2ncnc3[nH]ccc23)C1` [Example 4, 1-((3S,4S)-3-((7H-pyrrolo[2,3-d]pyrimidin-4-yl)amino)-4-fluoropiperidin-1-yl)prop-2-en-1-one]: the half-life at 1 μM was 2.33 h.
As for `C=CC(=O)N1CC[C@@H](Nc2cnc3[nH]cc(C(=O)NC(C)(C)C)c3n2)C[C@H]1C` [Example 342, 2-(((2R,4R)-1-Acryloyl-2-methylpiperidin-4-yl)amino)-N-(tert-butyl)-5H-pyrrolo[2,3-b]pyrazine-7-carboxamide], the half-life at 1 μM was greater than 6 h.
For the molecule `C=CC(=O)N1CCC(Nc2cnc3[nH]cc(C(=O)NC4CCCC4(F)F)c3n2)CC1` (stereo not drawn) [Example 234, 2-[(1-acryloylpiperidin-4-yl)amino]-N-(2,2-difluorocyclopentyl)-5H-pyrrolo[2,3-b]pyrazine-7-carboxamide], the half-life at 1 μM was found to be 4.93 h.
`C=CC(=O)N1CCC(Nc2cnc3[nH]cc(C(=O)NC4CCCCC4(F)F)c3n2)CC1` (stereo not drawn) [Example 256, 2-[(1-acryloylpiperidin-4-yl)amino]-N-(2,2-difluorocyclohexyl)-5H-pyrrolo[2,3-b]pyrazine-7-carboxamide]: the half-life at 1 μM came out at 3.98 h.
Consider `C=CC(=O)N1C[C@H](Nc2ncnc3[nH]ccc23)CC[C@@H]1CC` (single isomer, unassigned) [Example 9], for which the half-life at 1 μM was greater than 6 h.
Consider `C=CC(=O)N1CCC(Nc2cnc3[nH]cc(-c4ccc(C)nc4)c3n2)CC1` [Example 199, 1-(4-{[7-(6-methylpyridin-3-yl)-5H-pyrrolo[2,3-b]pyrazin-2-yl]amino}piperidin-1-yl)prop-2-en-1-one], for which the half-life at 1 μM is greater than 6 h.
For the molecule `C=CC(=O)N1CCN(c2cnc3[nH]cc(C(=O)NC(C)C)c3n2)C[C@@H]1C` [Example 295, 2-[(3S)-4-acryloyl-3-methylpiperazin-1-yl]-N-(propan-2-yl)-5H-pyrrolo[2,3-b]pyrazine-7-carboxamide], the half-life at 1 μM was 3.15 h.
Turning to `C=CC(=O)N1CCC(Nc2cnc3[nH]cc(C(=O)NCC(F)(F)F)c3n2)CC1` [Example 273, 2-[(1-acryloylpiperidin-4-yl)amino]-N-(2,2,2-trifluoroethyl)-5H-pyrrolo[2,3-b]pyrazine-7-carboxamide], the half-life at 1 μM was found to be 3.63 h.
Consider `C=CC(=O)N1CCC[C@@H](Nc2ncnc3[nH]cc(-c4ccc(OCC)nc4)c23)C1` [Example 33, 1-[(3R)-3-{[5-(6-ethoxypyridin-3-yl)-7H-pyrrolo[2,3-d]pyrimidin-4-yl]amino}piperidin-1-yl]prop-2-en-1-one], for which the half-life at 1 μM is greater than 6 h.
Then `C=CC(=O)N1C[C@H](C#N)C[C@@H](Nc2ncnc3[nH]ccc23)C1` [Example 6, (3R,5R)-5-((7H-pyrrolo[2,3-d]pyrimidin-4-yl)amino)-1-acryloylpiperidine-3-carbonitrile], with 4.22 h; and `C=CC(=O)N1C[C@H](Nc2ncnc3[nH]cc(C#N)c23)CC[C@@H]1C` [Example 163, 4-{[(3R,6S)-1-Acryloyl-6-methylpiperidin-3-yl]amino}-7H-pyrrolo[2,3-d]pyrimidine-5-carbonitrile], with 4.83 h.
Then `C#CCNC(=O)c1c[nH]c2ncc(NC3CCN(C(=O)C=C)CC3)nc12` [Example 343, 2-((1-Acryloylpiperidin-4-yl)amino)-N-(prop-2-yn-1-yl)-5H-pyrrolo[2,3-b]pyrazine-7-carboxamide], with greater than 5.85 h.
For `C=CC(=O)N1CC[C@@H]2OCCN(c3ncnc4[nH]ccc34)[C@@H]2C1` [Example 90, 1-[(4aR,8aS)-4-(7H-Pyrrolo[2,3-d]pyrimidin-4-yl)hexahydro-2H-pyrido[4,3-b][1,4]oxazin-6(5H)-yl]prop-2-en-1-one], the half-life at 1 μM came to 2.8 h.
For the molecule `C=CC(=O)N1CCC[C@@H](Nc2ncnc3[nH]cc(-c4ccc(C)nc4)c23)C1` [Example 66, (R)-1-(3-((5-(6-methylpyridin-3-yl)-7H-pyrrolo[2,3-d]pyrimidin-4-yl)amino)piperidin-1-yl)prop-2-en-1-one], the half-life at 1 μM is greater than 6 h.
Then `C=CC(=O)N1CCC(Nc2cnc3[nH]cc(C(=O)NCC4CC(F)(F)C4)c3n2)CC1` [Example 238, 2-[(1-acryloylpiperidin-4-yl)amino]-N-[(3,3-difluorocyclobutyl)methyl]-5H-pyrrolo[2,3-b]pyrazine-7-carboxamide], with 4.33 h; and `C=CC(=O)N1CCC[C@@H](Nc2ncnc3[nH]cc(C#N)c23)C1` [Example 45, 4-{[(3R)-1-acryloylpiperidin-3-yl]amino}-7H-pyrrolo[2,3-d]pyrimidine-5-carbonitrile], with greater than 6 h; and `C=CC(=O)N1C[C@@H](Nc2ncnc3[nH]ccc23)CC[C@H]1CO` [Example 117, 1-[(2S,5S)-2-(Hydroxymethyl)-5-(7H-pyrrolo[2,3-d]pyrimidin-4-ylamino)piperidin-1-yl]prop-2-en-1-one], with greater than 6 h.
Regarding `C=CC(=O)N1CCC[C@@H](Nc2nc(Nc3cccnc3)nc3[nH]ccc23)C1` [Example 63, 1-[(3R)-3-{[2-(Pyridin-3-ylamino)-7H-pyrrolo[2,3-d]pyrimidin-4-yl]amino}piperidin-1-yl]prop-2-en-1-one], the half-life at 1 μM was greater than 6 h.
Turning to `C=CC(=O)N1CCC(Oc2cnc3[nH]cc(C(=O)NC(C)C)c3n2)CC1` [Example 339, 2-((1-Acryloylpiperidin-4-yl)oxy)-N-isopropyl-5H-pyrrolo[2,3-b]pyrazine-7-carboxamide], the half-life at 1 μM is 3.78 h.
`C=CC(=O)N1C[C@H](Nc2ncnc3[nH]ccc23)C[C@H](N(C)C)C1` [Example 57, 1-((3R,5S)-3-((7H-Pyrrolo[2,3-d]pyrimidin-4-yl)amino)-5-(dimethylamino)piperidin-1-yl)prop-2-en-1-one]: the half-life at 1 μM came to 1.35 h.
Take `C=CC(=O)N1CCC(Oc2cnc3[nH]cc(-c4cnn(C)c4)c3n2)CC1` [Example 218, 1-(4-{[7-(1-methyl-1H-pyrazol-4-yl)-5H-pyrrolo[2,3-b]pyrazin-2-yl]oxy}piperidin-1-yl)prop-2-en-1-one]: the half-life at 1 μM is greater than 6 h.
For `C=CC(=O)N1CCC[C@@H](Nc2ncnc3[nH]cc(-c4ccc(C(=O)N(C)C)cc4)c23)C1` [Example 27, 4-(4-{[(3R)-1-acryloylpiperidin-3-yl]amino}-7H-pyrrolo[2,3-d]pyrimidin-5-yl)-N,N-dimethylbenzamide], the half-life at 1 μM is 0.767 h.
Take `C=CC(=O)N1CCC(Nc2cnc3[nH]cc(C(=O)N[C@H]4CC[C@H](F)C4)c3n2)CC1` [Example 247, 2-[(1-acryloylpiperidin-4-yl)amino]-N-[(1S,3S)-3-fluorocyclopentyl]-5H-pyrrolo[2,3-b]pyrazine-7-carboxamide]: the half-life at 1 μM stood at 4.53 h.
Turning to `C=CC(=O)N1C[C@@H](O)C[C@@H](Nc2ncnc3[nH]cc(Cl)c23)C1` [Example 162, 1-{(3R,5S)-3-[(5-Chloro-7H-pyrrolo[2,3-d]pyrimidin-4-yl)amino]-5-hydroxypiperidin-1-yl}prop-2-en-1-one], the half-life at 1 μM is greater than 6 h.
In the case of `C=CC(=O)N1CCC(Nc2cnc3[nH]cc(C(=O)NCC4CCCC4)c3n2)CC1` [Example 270, 2-[(1-acryloylpiperidin-4-yl)amino]-N-(cyclopentylmethyl)-5H-pyrrolo[2,3-b]pyrazine-7-carboxamide], the half-life at 1 μM is 3.87 h.
On to `C=CC(=O)N1CCC(Nc2cnc3[nH]cc(C(=O)NCCCC)c3n2)CC1` [Example 269, 2-[(1-acryloylpiperidin-4-yl)amino]-N-butyl-5H-pyrrolo[2,3-b]pyrazine-7-carboxamide], for which the half-life at 1 μM is 4.27 h.
With `C=CC(=O)N1CC[C@]2(C)CCN(c3ncnc4[nH]ccc34)[C@@H]2C1` [Example 59, 1-((3aS,7aS)-3a-Methyl-1-(7H-pyrrolo[2,3-d]pyrimidin-4-yl)hexahydro-1H-pyrrolo[2,3-c]pyridin-6(2H)-yl)prop-2-en-1-one], the half-life at 1 μM was found to be 3.07 h.
With `C=CC(=O)N1C[C@@H](C)C[C@@H](Nc2ncnc3[nH]ccc23)C1` (racemic) [Example 22, rac-cis-1-((3R,5S)-3-((7H-Pyrrolo[2,3-d]pyrimidin-4-yl)amino)-5-methylpiperidin-1-yl)prop-2-en-1-one], the half-life at 1 μM amounted to 5.78 h.
On to `C=CC(=O)N1CCC(Nc2cnc3[nH]cc(C(=O)NC(C)C4CC4)c3n2)CC1` (stereo not drawn) [Example 288, 2-[(1-acryloylpiperidin-4-yl)amino]-N-(1-cyclopropylethyl)-5H-pyrrolo[2,3-b]pyrazine-7-carboxamide], for which the half-life at 1 μM was 3.67 h.
On to `C=CC(=O)N1CCC[C@@H](Nc2ncnc3[nH]ccc23)C1` [Example 12, (R)-1-(3-((7H-Pyrrolo[2,3-d]pyrimidin-4-yl)amino)piperidin-1-yl)prop-2-en-1-one], for which the half-life at 1 μM was greater than 5.53 h.
Turning to `C=CC(=O)N1C[C@H](C)C[C@H](Nc2ncnc3[nH]ccc23)C1` [Example 128, 1-[(3R,5S)-3-Methyl-5-(7H-pyrrolo[2,3-d]pyrimidin-4-ylamino)piperidin-1-yl]prop-2-en-1-one], the half-life at 1 μM came to 5.07 h.
In the case of `C=CC(=O)N1C[C@@H](C)C[C@H](Nc2ncnc3[nH]ccc23)C1` [Example 75, 1-((3S,5S)-3-((7H-Pyrrolo[2,3-d]pyrimidin-4-yl)amino)-5-methylpiperidin-1-yl)prop-2-en-1-one], the half-life at 1 μM was greater than 6 h.
In the case of `C=CC(=O)N1CCC(Nc2cnc3[nH]cc(C(=O)NC(C)C)c3n2)CC1` [Example 168, 2-[(1-acryloylpiperidin-4-yl)amino]-N-(propan-2-yl)-5H-pyrrolo[2,3-b]pyrazine-7-carboxamide], the half-life at 1 μM is greater than 5.83 h.
Then `C=CC(=O)N1CCC(Nc2cnc3[nH]cc(-c4ccc(F)nc4)c3n2)CC1` [Example 207, 1-(4-{[7-(6-fluoropyridin-3-yl)-5H-pyrrolo[2,3-b]pyrazin-2-yl]amino}piperidin-1-yl)prop-2-en-1-one], with greater than 6 h.
As to `C=CC(=O)N1CCC(Nc2cnc3[nH]cc(C(=O)NCCC#N)c3n2)CC1` [Example 261, 2-[(1-acryloylpiperidin-4-yl)amino]-N-(2-cyanoethyl)-5H-pyrrolo[2,3-b]pyrazine-7-carboxamide], the half-life at 1 μM was greater than 6 h.
Turning to `C=CC(=O)N1CC(Nc2ncnc3[nH]ccc23)CCC1(C)C` (stereo not drawn) [Example 67, 1-(5-((7H-Pyrrolo[2,3-d]pyrimidin-4-yl)amino)-2,2-dimethylpiperidin-1-yl)prop-2-en-1-one], the half-life at 1 μM is greater than 6 h.

For the origin of these results see patent US9617258B2, “Pyrrolo[2,3-d]pyrimidinyl, pyrrolo[2,3-b]pyrazinyl and pyrrolo[2,3-d]pyridinyl acrylamides” (Pfizer Inc., priority 2013, dated 2017).
